“Also recorded” adds a separate entry of the source.

In data set [1] the test system is mouse embryonic fibroblasts. To be noted: cited from earlier work.
Data set [2] concerns mouse and human MPNST cell lines. To be noted: cited from earlier work.
The test system of data set [3] is human MPNST cells subcutaneously xenografted into mice. To be noted: cited from earlier work.
In data set [4] the test system is Cas9-expressing HCT116 cells. The experiment in a line: Genome-wide pooled CRISPR/Cas9 knockout screen in HCT116. Format: cell-based, human. The text has this:
To gain insight into the mechanism of 9 and the relevance of Nam, we pursued two independent and complementary unbiased genetic approaches. First, we performed a genome-wide pooled Clustered Regularly Interspaced Short Palindromic Repeats (CRISPR) and CRISPR-associated protein 9 (Cas9) knockout screen to identify genes whose loss of function can enhance or suppress compound 9 activity. […] We cultured Cas9-expressing HCT116 cells in 10% FBS Nam-free DMEM and transduced with a lentiviral single guide RNA (sgRNA) library designed to silence 19,114 human genes.^11 These cells were treated with either vehicle (DMSO) or 9 for 30 days by which time the 9-treated cells had 7.6 fewer population doublings. Then, relative sgRNA sequences in the resulting cells were determined by massively parallel sequencing of PCR products amplified from genomic DNA, and the relative impact of each gene was derived from the sgRNA reads.
These observations, taken together, support the hypothesis that the activity of compound 9 depends on NAMPT and NMNAT1.

The subject of another data set is SARM1. The experiment in a line: Cytotoxicity in SARM1-knockout versus wild type cells. Format: cell-based. To be noted: SARM1-knockout vs wild type. The text has this: (§1) Given that vacor, 3-AP, and compound 21 are all metabolized to toxic, NAD-like derivatives through NAMPT and NMNAT, we hypothesized that their anti-cancer activity may also depend on SARM1. To test this, we compared the toxic effects of vacor, 3-AP, and 9 in either wild type cells or cells in which we used CRISPR to silence SARM1. […] These observations highlight that even though these different scaffolds are toxified through the same mechanism, the resulting metabolites may have different activities. We next co-titrated guanosine, which is known to rescue tiazofurin by bypassing IMPDH in guanylate synthesis, with each of the above small molecules. […] To test this hypothesis, we set up in vitro reactions with different combinations of 9, NAMPT and NMNAT. After incubation, metabolites were extracted, reconstituted in aqueous solution and then co-incubated with an established IMPDH2 enzyme assay.

Another data set concerns resistant iHCT116 clones. The experiment in a line: Metabolism of 9 in resistant iHCT116 clones. Format: cell-based. To be noted: parental and resistant clones. The text has this: The experiments described above are consistent with the model that both 1 and 9 are converted by NAMPT and NMNAT1 into their respective MN and AD metabolites. It remains unclear, however, which of these two metabolites is contributing to toxicity. To address this question, we measured 9 metabolism, 9-MN and 9-AD levels upon treatment of the resistant clones identified through forward genetics. […] Clones 5 and 7 were resistant to 9 but had normal NAMPT and NMINAT levels.
Prior to the experiment, cells were cultured in low-Nam DMEM for at least 1 passage (3 days) to deplete intracellular Nam. 15,000 cells were plated in a 96-well plate with 100 μL low-Nam media. At appropriate time points, 500 nM 1 or 9, or equal volume of vehicle (DMSO) were added using TECAN. 200 μL of acetonitrile with 0.1% formic acid were added to the assayed wells. For the 0-hour time point, compound or vehicle was added after the addition of acetonitrile and formic acid. Following incubation for 10 minutes at room temperature, samples were transferred to Eppendorf tubes and centrifuged at 20,000×g for 5 minutes. The supernatants were filtered through 0.2 μm PVDF filters and analyzed by LC-MS/TOF.

The subject of a further data set is iHCT116 cells. The experiment in a line: Forward genetics resistance selection (IAA-inducible mutagenesis). In kind it is cell-based. From the text: Second, we screened for resistance to 9 in iHCT116 cells, a system that uses inducible mutagenesis and forward genetics to find compound-resistant mutations and thus can reveal both loss of function and gain of function alleles that suppress activity. The iHCT116 system is a barcoded cell line in which we temporally control mutagenesis by the addition of indole acetic acid (IAA) mediated degradation of the mismatch repair protein MLH1.^12 MLN4924 is a small molecule toxin that we use as a positive control to verify that IAA treatment leads to increased mutations. By degrading MLH1 and increasing the overall mutation rate, IAA treatment increases the frequency of UBA3 mutations, leading to a higher rate of MLN4924 resistance. […] Having previously established a relationship between either NMNAT1 levels or NAMPT activity and compound resistance, we analyzed the levels of both enzymes in multiple resistant clones that harbored unique barcode sequences. […] To test whether reduced NMNAT1 levels in these clones contributed to resistance, we ectopically expressed NMNAT1 in either the parental cells or a representative resistant clone with low NMNAT1 expression.

For another data set, the system named is IMPDH. The experiment in a line: Guanosine co-titration rescue. Format: cell-based. To be noted: guanosine co-titrated.
Text: as §1

Data set [5] deals with T1, recombinant human inosine monophosphate dehydrogenase 2 (IMPDH2) (Homo sapiens, UniProt P12268).
T1 construct: NADH absorbance assay with extracts of NAMPT/NMNAT reactions
The experiment in a line: IMPDH2 enzyme assay with reaction extracts. Format: biochemical. To be noted: role: inhibitor; extract of overnight reaction of 9 with NAMPT and NMNAT added at 40% v/v; 500 uM NAD, 250 uM IMP.
Text: as §1
IMPDH activity was measured by monitoring NADH production through the change in absorbance at […] as previously described [PMID: 13428767]. […] Absorbance was measured every 30 seconds for 30 minutes on a BioTek Cytation 5 plate reader (Agilent, USA) at 37 °C. IMPDH2 activity was determined from the slope of absorbance vs. time plots. […]

Where [6] appears, read: resistant clones with unique barcodes.

Consider `O=C(Nc1cccnc1)c1cccs1` [Compound 1, N-(pyridin-3-yl)thiophene-2-carboxamide], for which the “toxicity to mouse embryonic fibroblasts” value in [1] was “nontoxic”. Also, the “toxicity to MPNST cell lines” value in [2] is given as “selectively toxic”. Also, the “toxic effects in mice” value in [3] (mice bearing MPNST xenografts) is listed as “without obvious toxic effects”. The “growth of xenograft tumors” value in data set [3] (mice, listed as compound 21) is “inhibited the growth; also recorded: reduces the growth of xenograft tumors”.

`O=C(Nc1cccs1)c1cccnc1` [Compound 9, N-(Thiophen-2-yl)nicotinamide]: in data set [4] (9-treated cells, 30 days), the “enrichment of sgRNA reads for NAMPT” value came to 2.1 fold and the “increase in sgRNA reads targeting NMNAT1” value is recorded as 5.2 fold. Further, in data set [4] (9-treated versus vehicle, 30 days), the fewer population doublings stood at 7.6 population doublings. The “rank of NAMPT among enriched genes” value in data set [4] (out of 19,114 genes) is 101. The “sensitivity of SARM1-knockout cells” value with SARM1 is “equally sensitive”. For the same molecule, the “metabolism of 9 over time” value in the data set with resistant iHCT116 clones was “metabolized over time”. For the same molecule, in the data set with iHCT116 cells (setting [6]), the “NAMPT levels in 9-resistant clones” value was “the same in all clones” and the “NMNAT1 protein levels downregulated in 9-resistant clones” value is reported as “five out of eight clones”. The “difference in number of surviving clones Mut-off vs Mut-on” value with iHCT116 cells (three lethal selection concentrations of 9) is given as “did not observe a substantial difference”. Moreover, the “guanosine rescue of toxicity” value in the data set on IMPDH was “profound dose-dependent rescue”. For the same molecule, the “inhibition of IMPDH activity” value in [5] was “substantial inhibition”.

(Values after patent publication US20260356803A1, “Nicotinamide derivatives” (Board of Regents, The University of Texas System, priority 2024, published 2026).)
